Our source for the Ki values is patent US10988478B1, “Pyrazolo[1,5a]pyrimidine derivatives as IRAK4 modulators” (Genentech, Inc., priority 2015, dated 2021).

A word on the Ki: it is a dissociation constant, usually derived from enzyme kinetics or from competition with a known ligand.

In the test the target is human IRAK4 (Homo sapiens (Human), UniProt Q9NWZ3). The test is described as follows: IRAK4 kinase inhibition, Transcreener fluorescence polarization ADP assay. It is filed as biochemical. As to conditions: recombinant full-length His6-IRAK4; 125 uM ATP; 90 min; Ki computed using ATP Km 642 uM. As to the method: Compounds were assayed for inhibition of human IRAK4 and IRAK1 catalytic activity using recombinant enzyme produced from insect cells. Full-length IRAK4 protein, carrying an N-terminal His6-Tag, was obtained from Life Technologies (Carlsbad, Calif., USA). The IRAK1 construct was produced internally and was comprised of IRAK1 residues Arg194 to Ser712, preceded by an NH2-terminal His6 tag and the coding sequence for glutathione-S-transferase.
human IRAK4, sequence (Q9NWZ3 whole entry, the tested form may be a part): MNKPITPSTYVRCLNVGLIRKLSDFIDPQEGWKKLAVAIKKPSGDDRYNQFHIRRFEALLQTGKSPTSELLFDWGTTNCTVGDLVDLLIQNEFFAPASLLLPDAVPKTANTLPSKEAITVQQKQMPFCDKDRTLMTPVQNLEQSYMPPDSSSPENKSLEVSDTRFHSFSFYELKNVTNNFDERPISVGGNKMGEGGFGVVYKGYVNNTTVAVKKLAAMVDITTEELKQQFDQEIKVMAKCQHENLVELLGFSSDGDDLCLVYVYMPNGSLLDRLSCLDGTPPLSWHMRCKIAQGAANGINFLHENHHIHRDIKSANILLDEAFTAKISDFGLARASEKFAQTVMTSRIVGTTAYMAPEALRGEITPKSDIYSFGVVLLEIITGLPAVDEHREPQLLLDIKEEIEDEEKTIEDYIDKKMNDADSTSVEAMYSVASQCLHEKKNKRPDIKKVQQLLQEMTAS
For `CC(C)(O)CN1CCN(c2cc3c(cc2NC(=O)c2cnn4cccnc24)CC(C)(C)O3)CC1` [Example 434, N-(6-(4-(2-hydroxy-2-methylpropyl)piperazin-1-yl)-2,2-dimethyl-2,3-dihydrobenzofuran-5-yl)pyrazolo[1,5-a]pyrimidine-3-carboxamide], the Ki stood at 22 nM.
Take `C[C@@]1(CO)Cc2cc(NC(=O)c3cnn4cccnc34)c(N3CCC4(CC3)CNC4=O)cc2O1` [Example 321, (S)-N-(2-(hydroxymethyl)-2-methyl-6-(1-oxo-2,7-diazaspiro[3.5]nonan-7-yl)-2,3-dihydrobenzofuran-5-yl)pyrazolo[1,5-a]pyrimidine-3-carboxamide]: the Ki turned out to be 11 nM.
To `CC1(CO)CCN(c2cc3c(cc2NC(=O)c2cnn4cccnc24)CC(C)(C)O3)C1` (stereo not shown) [Example 18, N-(6-(3-(Hydroxymethyl)-3-methylpyrrolidin-1-yl)-2,2-dimethyl-2,3-dihydrobenzofuran-5-yl)pyrazolo[1,5-a]pyrimidine-3-carboxamide] belongs 21 nM; to `CC(C)(O)[C@@]1(C)Cc2cc(NC(=O)c3cnn4cccnc34)c(N3CCN(CC(N)=O)CC3)cc2O1` [Example 525, N-[(2R)-6-[4-(2-amino-2-oxo-ethyl)piperazin-1-yl]-2-(1-hydroxy-1-methyl-ethyl)-2-methyl-3H-benzofuran-5-yl]pyrazolo[1,5-a]pyrimidine-3-carboxamide], 4.2 nM; to “N-[(2R)-6-[4-(2,2-difluoroethyl)piperazin-1-yl]-2-(hydroxymethyl)-2-methyl-3H-benzofuran-5-yl]-6-fluoro-pyrazolo[1,5-a]pyrimidine-3-carboxamide [Example 494]”, 40 nM.
Turning to `C[C@@]1(CO)Cc2cc(NC(=O)c3cnn4cccnc34)c(N3CCOCC3)c(Cl)c2O1` [Example 81, (S)—N-(7-chloro-2-(hydroxymethyl)-2-methyl-6-morpholino-2,3-dihydrobenzofuran-5-yl)pyrazolo[1,5-a]pyrimidine-3-carboxamide], the inhibitory constant (Ki) was 100 nM.
With `CC1(C)Cc2cc(NC(=O)c3cnn4cccnc34)c(OC[C@H]3CCC(=O)N3)cc2O1` [Example 540, N-[2,2-dimethyl-6-[[(2R)-5-oxopyrrolidin-2-yl]methoxy]-3H-benzofuran-5-yl]pyrazolo[1,5-a]pyrimidine-3-carboxamide], the inhibitory constant (Ki) worked out at 74 nM.
With `C[C@@]1(O)COc2cc(N3CCC(n4ccnc4)CC3)c(NC(=O)c3cnn4cccnc34)cc2C1` [Example 429, (S)-N-(7-(4-(1H-imidazol-1-yl)piperidin-1-yl)-3-hydroxy-3-methylchroman-6-yl)pyrazolo[1,5-a]pyrimidine-3-carboxamide] the figure was 12 nM; with `C[C@@]1(CO)Cc2cc(NC(=O)c3cnn4cccnc34)c(N3CC[C@@H](F)C3)cc2O1` [Example 59, N-[(2S)-6-[(3R)-3-Fluoropyrrolidin-1-yl]-2-(hydroxymethyl)-2-methyl-3H-benzofuran-5-yl]pyrazolo[1,5-a]pyrimidine-3-carboxamide], 9.6 nM; with `CC1(C)Cc2cc(NC(=O)c3cnn4cccnc34)c(C3CCN(CC(F)(F)F)CC3)cc2O1` [Example 90, N-[2,2-Dimethyl-6-[1-(2,2,2-trifluoroethyl)-4-piperidyl]-3H-benzofuran-5-yl]pyrazolo[1,5-a]pyrimidine-3-carboxamide], 43 nM.
To `CC1(C)Cc2cc(NC(=O)c3cnn4cc(C#N)cnc34)c(N3CCOCC3)cc2O1` [Example 407, 6-Cyano-N-(2,2-dimethyl-6-morpholino-2,3-dihydrobenzofuran-5-yl)pyrazolo[1,5-a]pyrimidine-3-carboxamide] belongs 6 nM; to `CC(C)(O)C(F)(F)CN1Cc2cc(NC(=O)c3cnn4cccnc34)c(N3CCOCC3)cc2C1=O` [Example 270, N-[2-(2,2-Difluoro-3-hydroxy-3-methyl-butyl)-6-morpholino-1-oxo-isoindolin-5-yl]pyrazolo[1,5-a]pyrimidine-3-carboxamide], 9.7 nM; to `CC1(C)Cc2cc(NC(=O)c3cnn4cccnc34)c(N3CCC(C(F)(F)F)C3)cc2O1` (stereo not shown) [Example 195, N-[2,2-dimethyl-6-[3-(trifluoromethyl)pyrrolidin-1-yl]-3H-benzofuran-5-yl]pyrazolo[1,5-a]pyrimidine-3-carboxamide], 20 nM.
With `O=C(Nc1cc2c(cc1N1CCOCC1)C(=O)N(CCO)C2)c1cnn2cccnc12` [Example 179, N-[2-(2-hydroxyethyl)-6-morpholino-1-oxo-isoindolin-5-yl]pyrazolo[1,5-a]pyrimidine-3-carboxamide] the figure was 31 nM; with `CC(C)(O)[C@@]1(C)Cc2cc(NC(=O)c3cnn4cccnc34)c(N3CCOCC3)cc2O1` [Example 157, (R)—N-(2-(2-Hydroxypropan-2-yl)-2-methyl-6-morpholino-2,3-dihydrobenzofuran-5-yl)pyrazolo[1,5-a]pyrimidine-3-carboxamide], 8.8 nM; with `O=C(Nc1cc2c(cc1N1CCOCC1)C(=O)N(C[C@@H]1CCC[C@@H]1O)C2)c1cnn2cccnc12` [Example 559, N-[2-[[(1S,2S)-2-hydroxycyclopentyl]methyl]-6-morpholino-1-oxo-isoindolin-5-yl]pyrazolo[1,5-a]pyrimidine-3-carboxamide], 2.2 nM.
`CC(C)(O)[C@H](F)CN1Cc2cc(NC(=O)c3cnn4cccnc34)c(N3CCOCC3)cc2S1(=O)=O` [Example 289, N-[2-[(2R)-2-Fluoro-3-hydroxy-3-methyl-butyl]-6-morpholino-1,1-dioxo-3H-1,2-benzothiazol-5-yl]pyrazolo[1,5-a]pyrimidine-3-carboxamide]: the inhibitory constant (Ki) worked out at 8 nM.
On to `Cc1c2c(cc(NC(=O)c3cnn4cccnc34)c1N1CCOCC1)C[C@](C)(CO)O2` [Example 83, (R)—N-(2-(Hydroxymethyl)-2,7-dimethyl-6-morpholino-2,3-dihydrobenzofuran-5-yl)pyrazolo[1,5-a]pyrimidine-3-carboxamide], for which the Ki was 62 nM.
To `CC1(C)Cc2cc(NC(=O)c3cnn4cccnc34)c(N3CCN(CCC#N)CC3)cc2O1` [Example 457, N-(6-(4-(2-cyanoethyl)piperazin-1-yl)-2,2-dimethyl-2,3-dihydrobenzofuran-5-yl)pyrazolo[1,5-a]pyrimidine-3-carboxamide] belongs 4.4 nM; to `Cc1cnc2c(C(=O)Nc3cc4c(cc3N3CCOCC3)O[C@](C)(CO)C4)cnn2c1` [Example 30, (S)—N-(2-(hydroxymethyl)-2-methyl-6-morpholino-2,3-dihydrobenzofuran-5-yl)-6-methylpyrazolo[1,5-a]pyrimidine-3-carboxamide], 32 nM; to `COc1cc2c(cc1NC(=O)c1cnn3cccnc13)CC(C)(C)O2` [Example 34, N-(6-Methoxy-2,2-dimethyl-2,3-dihydrobenzofuran-5-yl)pyrazolo[1,5-a]pyrimidine-3-carboxamide], 38 nM.
To `CC1(C)Cc2cc(NC(=O)c3cnn4cccnc34)c(OC[C@@H]3CCNC(=O)C3)cc2O1` [Example 305] belongs 29 nM; to `O=C(Nc1cc2c(cc1N1CCOCC1)C(=O)N([C@@H]1CCOC[C@H]1F)C2)c1cnn2cccnc12` [Example 400, N-[2-[(3S,4R)-3-fluorotetrahydropyran-4-yl]-6-morpholino-1-oxo-isoindolin-5-yl]pyrazolo[1,5-a]pyrimidine-3-carboxamide], 1 nM.
With `Cn1cc(-c2cc3c(cc2NC(=O)c2cnn4cccnc24)CC(C)(C)O3)cn1` [Example 404, N-(2,2-Dimethyl-6-(1-methyl-1H-pyrazol-4-yl)-2,3-dihydrobenzofuran-5-yl)pyrazolo[1,5-a]pyrimidine-3-carboxamide] the figure was 64 nM; with `CC1(C)Cc2cc(NC(=O)c3cnn4cccnc34)c(N3CC[C@@]4(CCOC4)C3)cc2O1` (single isomer, unassigned) [Example 222], 94 nM; with `CC(C)N1Cc2cc(NC(=O)c3cnn4ccc(C(F)F)nc34)c(N3CCOCC3)cc2C1=O` [Example 484, 5-(Difluoromethyl)-N-(2-isopropyl-6-morpholino-1-oxo-isoindolin-5-yl)pyrazolo[1,5-a]pyrimidine-3-carboxamide], 350 nM.
As for `C[C@]1(CO)Cc2cc(NC(=O)c3cnn4cccnc34)c(N3CCC(F)(F)C3)cc2O1` [Example 66, N-[(2R)-6-(3,3-Difluoropyrrolidin-1-yl)-2-(hydroxymethyl)-2-methyl-3H-benzofuran-5-yl]pyrazolo[1,5-a]pyrimidine-3-carboxamide], the inhibition constant Ki was found to be 24 nM.
For `CC1(C)Cc2cc(NC(=O)c3cnn4cccnc34)c(OCc3cccnc3)cc2O1` [Example 297, N-(2,2-Dimethyl-6-(pyridin-3-ylmethoxy)-2,3-dihydrobenzofuran-5-yl)pyrazolo[1,5-α]pyrimidine-3-carboxamide], the inhibitory constant (Ki) stood at 23 nM.
To `C[C@]1(CO)Cc2cc(NC(=O)c3cnn4cccnc34)c(N3CCC(F)(F)CC3)cc2O1` [Example 122, (R)—N-(6-(4,4-difluoropiperidin-1-yl)-2-(hydroxymethyl)-2-methyl-2,3-dihydrobenzofuran-5-yl)pyrazolo[1,5-a]pyrimidine-3-carboxamide] belongs 6 nM; to `CC1(C)Cc2cc(NC(=O)c3cnn4cccnc34)c(N3CC4C(C3)C4(F)F)cc2O1` (stereo not shown) [Example 112, N-(6-(6,6-difluoro-3-azabicyclo[3.1.0]hexan-3-yl)-2,2-dimethyl-2,3-dihydrobenzofuran-5-yl)pyrazolo[1,5-a]pyrimidine-3-carboxamide], 78 nM.
Take `CC1(C)Cc2cc(NC(=O)c3cnn4cccnc34)c(N3CCCC(F)(F)CC3)cc2O1` [Example 207, N-(6-(4,4-difluoroazepan-1-yl)-2,2-dimethyl-2,3-dihydrobenzofuran-5-yl)pyrazolo[1,5-a]pyrimidine-3-carboxamide]: the inhibition constant Ki was 17 nM.
